Data set [1] is described as follows: Antibiotic suppression of gut microbiota: kinetics of TCS colonic metabolism after one-time oral gavage. The settings on record: within the 24-h period; 8 mg/kg TCS oral gavage.
The nature of data set [2]: TCS colonic metabolism in conventional vs germ-free Swiss Webster mice. It is filed as in vivo. The settings on record: 6 h after oral gavage of 8 mg/kg TCS, individual mice.
Another data set relates to MC38 cells. Description: Inflammatory response of MC38 intestinal epithelial cells (Il-6 RT-qPCR, IL-6 ELISA). It is filed as cell-based, mouse. The protocol: MC38 intestinal epithelial cells were cultured in Dulbecco’s Modified Eagle Medium (DMEM) supplemented with 10% fetal bovine serum (FBS) and incubated at 37 °C under an atmosphere of 5% CO2. MC38 cells were seeded at 20% confluency and left to settle overnight. Cells were then treated with either 1 μM TCS, TCS-G, or vehicle (DMSO). After 48 h, cells were harvested for RT-qPCR analysis. Cell medium was collected for ELISA analysis using the CBA Mouse Inflammation Kit (BD Sciences) according to the manufacturer’s instructions, and data were acquired using a BD LSR Fortessa flow cytometer (BD Biosciences) and analyzed using FlowJo software (Treestar).
Total RNA of colon tissues and MC38 cells were isolated using Trizol reagent (Ambion) according to the manufacturer’s instruction. RNA was reverse transcribed into cDNA using the High Capacity cDNA Reverse Transcription kit (Applied Biosystem) according to the manufacturer’s instructions. In all, 20 μL PCR reactions were prepared using the Maxima SYBR Green Master Mix (Thermo Fisher Scientific), and qPCR was carried out using a DNA Engine Opticon System (Bio-Rad Laboratories). Mouse-specific primer sequences (Thermo Fisher Scientific) used to detect inflammatory biomarkers are listed in Supplementary Table S6. Gapdh expression was used as an internal control.
a. Cultured murine intestinal epithelial MC38 cells were treated with 1 μM of TCS or TCS-G for 48 h prior to
studying inflammatory responses. b. TCS increases the expression of Il-6, which encodes the pro-inflammatory
n = 3 per group from three independent experiments, * P < 0.05, ** P < 0.01, *** P < 0.001.

A short description of data set [3]: Antibiotic suppression of gut microbiota: TCS colonic metabolism in mice (80 ppm TCS diet, 4 weeks). It is filed as in vivo. As to conditions: 80 ppm TCS via diet 4 weeks; antibiotic cocktail vs none. The source says:
This antibiotic composition was used in previous studies by others[20],[21] and us[22],[23]. […] After another 4 weeks, the mice were sacrificed, and their tissues were collected for LC-MS/MS analysis.

Data set [4] is described as follows: LC-MS/MS profiling of TCS metabolism in mice (TCS via diet for 4 weeks). The settings on record: for concentration of TCS, TCS-G, TCS-Sulfate: individual mice.
A short description of data set [5]: LC-MS/MS of TCS and its metabolites in human stool and urine after use of TCS-containing personal care products.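 For Profile in stool (%): molar share of summed TCS plus TCS-G plus TCS-sulfate.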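 For Profile in urine (%): molar share of summed TCS plus TCS-G plus TCS-sulfate.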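 For average molar concentration ratio: molar share of summed TCS plus TCS-G plus TCS-sulfate.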 It is filed as in vivo. The settings on record: for TCS metabolites in human stool / TCS metabolites in human urine: Treatment TCS, individual subjects; for average molar concentration ratio: TCS-exposed subjects. From the text:
To broaden our understanding of TCS metabolic profiles in the gut, we next analyzed TCS metabolism in human subjects. We utilized urine and stool samples from a previous study in which the recruited human subjects were first subjected to a washout period (no usage of TCS-containing products), then were randomly assigned to two groups that used personal care products like toothpaste with or without TCS for up to four months (see the scheme of the experiment in Fig. 1c)[15]. Previous data had established that humans are primarily exposed to TCS via toothpaste that provides a direct oral route to the gastrointestinal tract[16],[17].

The nature of data set [6]: Target engagement: GUSi in colon tissue and TCS to TCS-G ratio in colon digesta by LC-MS/MS. Type of data set: in vivo, mice. As to conditions: for GUSi in colon tissue: GUSi-treated mice, individual mice. The protocol:
After another 3 weeks, the mice were stimulated with 2% DSS (molecular weight = 36–50 KDa, MP Biomedicals, Solon, OH) in drinking water for 6 days to induce colitis. At end of the experiment, the mice were sacrificed for analysis.
Fig. S15. Orally dosed GUSi reaches the mouse colon and suppresses conversion of TCS -G to TCS. a.
mice were stimulated with DSS to induce colitis. The final GUSi was dosed on day 25 and mice were sacrificed
for analysis on day 27. b. GUSi is detected in the mouse colon 2 days after the final dose of the inhibitor. c.
GUSi treatment reduces the ratio of TCS to TCS-G in colon digesta.
per group. NA: no TCS or TCS-G detected.

Setting [7] is: treatment time 0 months (after washout).

“And” between values parts separate entries of the source, which are not always exact repeats. Equal entries are not always repeated.

With `O=C(O)C1OC(Oc2cc(Cl)ccc2Oc2ccc(Cl)cc2Cl)C(O)C(O)C1O` (stereo not drawn) [TCS-G, triclosan-glucuronide], the “increase of AUC in colon digesta by antibiotic treatment” value in data set [1] is reported as ~ 200 fold. Also, the “tcs, tcs-G in colon digesta” value was 0.05 pmol/mg and 0.09 pmol/mg and 0.07 pmol/mg and 0.08 pmol/mg and 0.03 pmol/mg and 0.02 pmol/mg in data set [2] (CONV Swiss Webster mice); 3.55 pmol/mg and 2.97 pmol/mg and 3.05 pmol/mg and 2.08 pmol/mg and 2.61 pmol/mg in data set [2] (GF Swiss Webster mice). The Il-6 gene expression entry with MC38 cells (1 µM, 48 h) is given as “does not”. For the same compound, in the data set on MC38 cells (MC38 cells, gene expression, replicates), the “Il-6 (Fig. S16b)” value is 1.072 and 0.7026 and 0.674 and 0.599 and 2.104 and 1.745 and 1.341 and 2.8489 and 1.88. The “IL-6 (Fig. S16c)” value with MC38 cells (MC38 cells, protein, replicates) is 30.76 pg/mL and 26.1 pg/mL and 35.84 pg/mL and 30.49 pg/mL and 20.04 pg/mL and 13.78 pg/mL and 35.28 pg/mL and 36.12 pg/mL and 25.88 pg/mL. For the same compound, in data set [3], the “change of concentration in the fecal content by antibiotic treatment” value is “sixfold”. Besides, the “concentration of TCS, TCS-G, TCS-Sulfate” value in data set [4] (Cecum (digesta), 80 ppm TCS via diet 4 weeks) is 0.45 pmol/mg and 0.99 pmol/mg and 0.44 pmol/mg and 0.88 pmol/mg and 0.62 pmol/mg and 0.91 pmol/mg; in data set [4] (Colon digesta, 1 ppm TCS in diet 4 weeks) it was 0 pmol/mg; in data set [4] (Colon digesta, 10 ppm TCS in diet 4 weeks), 0.02 pmol/mg; in data set [4] (Colon digesta, 80 ppm TCS in diet 4 weeks), 0.1 pmol/mg; in data set [4] (Feces, 1 ppm TCS in diet 4 weeks), 0.06 pmol/mg; in data set [4] (Feces, 10 ppm TCS in diet 4 weeks) it was 0.13 pmol/mg. Also, the “concentration of TCS, TCS-G, TCS-Sulfate” value was 0.35 pmol/mg and 0.43 pmol/mg in data set [4] (Feces, 80 ppm TCS in diet 4 weeks); 2.11 pmol/mg and 1.13 pmol/mg and 0.90 pmol/mg and 1.39 pmol/mg in data set [4] (Heart, 80 ppm TCS via diet 4 weeks); 14.84 pmol/mg and 26.51 pmol/mg and 44.77 pmol/mg and 37.15 pmol/mg in data set [4] (SI 1st section (digesta), 80 ppm TCS via diet 4 weeks); 56.00 pmol/mg and 24.46 pmol/mg and 19.60 pmol/mg and 25.12 pmol/mg and 26.25 pmol/mg and 17.70 pmol/mg and 32.78 pmol/mg and 21.27 pmol/mg and 57.45 pmol/mg and 7.43 pmol/mg in data set [4] (SI 2nd section (digesta), 80 ppm TCS via diet 4 weeks); 27.59 pmol/mg and 32.96 pmol/mg and 20.86 pmol/mg and 36.42 pmol/mg and 26.32 pmol/mg and 29.79 pmol/mg and 32.41 pmol/mg and 48.40 pmol/mg and 60.13 pmol/mg and 35.24 pmol/mg in data set [4] (SI 3rd section (digesta), 80 ppm TCS via diet 4 weeks); 46.08 pmol/mg and 59.25 pmol/mg and 48.99 pmol/mg and 79.17 pmol/mg and 94.49 pmol/mg and 43.76 pmol/mg and 46.26 pmol/mg and 23.11 pmol/mg and 8.33 pmol/mg and 51.24 pmol/mg in data set [4] (SI 4th section (digesta), 80 ppm TCS via diet 4 weeks). The “share of TCS metabolites found” value worked out at 55.4% in data set [4] (digesta of the 4th section of the mouse small intestine, 80 ppm TCS via diet 4 weeks) and 0.7% in data set [4] (fecal content, 80 ppm TCS via diet 4 weeks). The “Profile in urine (%)” value in data set [5] (TCS-exposed human subjects, n=7 urine samples) came to 98.39%. Also, the “Profile in stool (%)” value in data set [5] (TCS-exposed human subjects, n=23 stool samples) is recorded as 0.80%. The “TCS metabolites in human stool” value is 10.69 pmol/ g stool and 5.96 pmol/ g stool and < LOD and 10.80 pmol/ g stool in data set [5] (setting [7]); 10.24 pmol/ g stool and 13.69 pmol/ g stool and < LOD (3×) and 2.81 pmol/ g stool in data set [5] (treatment time 1 month); 3.18 pmol/ g stool and 2.97 pmol/ g stool and < LOD (2×) and 4.42 pmol/ g stool in data set [5] (treatment time 2 months); 7.01 pmol/ g stool and 5.96 pmol/ g stool and < LOD (3×) and 6.49 pmol/ g stool in data set [5] (treatment time 3 months); 7.57 pmol/ g stool and < LOD (3×) and 3.12 pmol/ g stool and 4.69 pmol/ g stool in data set [5] (treatment time 4 months). Moreover, the “TCS metabolites in human urine” value in data set [5] (setting [7]) is 18.4 nM urine and 3.47 nM urine and < LOD and 12.5 nM urine; in data set [5] (treatment time 1 month), 626 nM urine; in data set [5] (treatment time 2 months), 953 nM urine; in data set [5] (treatment time 3 months), 771 nM urine; in data set [5] (treatment time 4 months) it was 1037 nM urine and 70.9 nM urine and 1373 nM urine and 775 nM urine. Also, the “average molar concentration ratio” value in data set [5] (human stool) was 0.8%; in data set [5] (human urine), 98.4%.
`C1CCc2c(c(N3CCOCC3)nc3sc4c(N5CCNCC5)nnnc4c23)C1` [GUSi, UNC10201652]: the “presence in colon tissues” value in data set [6] (2 days after the final oral administration of GUSi (1 mg/kg)) was “detected”. Also, in data set [6] (GUSi 1 mg/kg oral gavage, TCS via diet), the “ratio of TCS to TCS-G in colon digesta” value is “significantly reduced”. Also, the “GUSi in colon tissue” value in data set [6] (TCS) is 4.6 pmol/g and 5.3 pmol/g and 18.7 pmol/g and 4.5 pmol/g and 2.1 pmol/g and 0.7 pmol/g and 6.2 pmol/g and 5.7 pmol/g and 12 pmol/g and 5.4 pmol/g; in data set [6] (Veh (no TCS)), 9 pmol/g and 9.3 pmol/g and 5.9 pmol/g and 9.8 pmol/g and 11.9 pmol/g and 9.9 pmol/g and 14 pmol/g and 8.6 pmol/g.

Values taken from paper PMC8748916, “Microbial enzymes induce colitis by reactivating triclosan in the mouse gastrointestinal tract” (Nature Communications, 2022).
